Measured values: US11001590B2, “Pyrazolopyrimidine derivatives” (BAYER ANIMAL HEALTH GMBH, priority 2016, dated 2021)

How the values were obtained:
[1] = tested on: Dirofilaria immitis microfilariae; experiment: In vitro assay 3: Dirofilaria immitis microfilariae (DIROIM L1), motility; conditions: 72 h, reduction of motility vs negative control, 72 h incubation
[2] = log P by HPLC on reversed phase columns (Method L0; [a] acidic, [b] neutral range); conditions: for logP (Method L0) [a]: HPLC on reversed phase columns, Method L0, [a] acidic range; for log P: HPLC on reversed phase columns (Method L0)
Protocol: Calibration was done with straight-chain alkan-2-ones (with 3 to 16 carbon atoms) with known log P values (measurement of log P values using retention times with linear interpolation between successive alkanones). Lambda-max-values were determined using UV-spectra from 200 nm to 400 nm and the peak values of the chromatographic signals.

C. elegans Slo-1a = C. elegans Slo-1a (Caenorhabditis elegans, UniProt Q95V25); experiment: In vitro assay 1: C. elegans Slo-1a, action at a recombinant C. elegans CHO cell line (membrane potential measurement); conditions: for pE50: CHO cells expressing C. elegans Slo-1a, voltage sensitive dye, FLIPR Tetra, negative decadic logarithm of EC50
Protocol: In Vitro Assay 1: C. Eleqans Slo-La—Action at a Recombinant C. elegans Cell Line
Cells were cultured at 37° C. and 5% CO2 in MEMalpha with Gutamax I (Invitrogen, Nr.: 32571), supplemented with 10% (v/v) heat inactivated fetal bovine serum (Invitrogen, Nr.: 10500), G418 (1 mg/ml, Invitrogen, Nr.: 10131). Cells were detached using Accutase (Sigma, Nr.: A6964).
Membrane Potential Measurements
Laboratory compound testing was performed on 384-well microtiter plates (MTPs, Greiner, Nr.: 781092). 8000 cells/well were plated onto 384-well MTPs and cultured for 20 to 24 hours at 37° C. and 5% CO2. After removal of the cell culture medium, the cells were washed once with tyrode (150 mM NaCl, 0.3 mM KCl, 2 mM CaCl2, 1 mM MgCl2, 0.8 mM NaH2PO4, 5 mM Glucose, 28 mM Hepes, pH 7.4) and then loaded with the voltage sensitive dye of the Membrane Potential Assay Kit diluted in tyrode for 1 h at room temperature.
After starting the measurement of fluorescence using a FLIPR Tetra (Molecular Devices, Exc. 510-545 nm, Emm. 565-625 nm), test compounds were added followed by the addition of KCl tyrode (final assay concentration: 70 mM KCl, 2 mM CaCl2, 1 mM MgCl2, 0.8 mM NaH2PO4, 5 mM Glucose, 28 mM Hepes, pH 7.4, including the voltage sensitive dye). The measurement was completed after 7 minutes.

[3] = last column of Table 1, column head not shown

Chain of C. elegans Slo-1a (Q95V25 whole entry): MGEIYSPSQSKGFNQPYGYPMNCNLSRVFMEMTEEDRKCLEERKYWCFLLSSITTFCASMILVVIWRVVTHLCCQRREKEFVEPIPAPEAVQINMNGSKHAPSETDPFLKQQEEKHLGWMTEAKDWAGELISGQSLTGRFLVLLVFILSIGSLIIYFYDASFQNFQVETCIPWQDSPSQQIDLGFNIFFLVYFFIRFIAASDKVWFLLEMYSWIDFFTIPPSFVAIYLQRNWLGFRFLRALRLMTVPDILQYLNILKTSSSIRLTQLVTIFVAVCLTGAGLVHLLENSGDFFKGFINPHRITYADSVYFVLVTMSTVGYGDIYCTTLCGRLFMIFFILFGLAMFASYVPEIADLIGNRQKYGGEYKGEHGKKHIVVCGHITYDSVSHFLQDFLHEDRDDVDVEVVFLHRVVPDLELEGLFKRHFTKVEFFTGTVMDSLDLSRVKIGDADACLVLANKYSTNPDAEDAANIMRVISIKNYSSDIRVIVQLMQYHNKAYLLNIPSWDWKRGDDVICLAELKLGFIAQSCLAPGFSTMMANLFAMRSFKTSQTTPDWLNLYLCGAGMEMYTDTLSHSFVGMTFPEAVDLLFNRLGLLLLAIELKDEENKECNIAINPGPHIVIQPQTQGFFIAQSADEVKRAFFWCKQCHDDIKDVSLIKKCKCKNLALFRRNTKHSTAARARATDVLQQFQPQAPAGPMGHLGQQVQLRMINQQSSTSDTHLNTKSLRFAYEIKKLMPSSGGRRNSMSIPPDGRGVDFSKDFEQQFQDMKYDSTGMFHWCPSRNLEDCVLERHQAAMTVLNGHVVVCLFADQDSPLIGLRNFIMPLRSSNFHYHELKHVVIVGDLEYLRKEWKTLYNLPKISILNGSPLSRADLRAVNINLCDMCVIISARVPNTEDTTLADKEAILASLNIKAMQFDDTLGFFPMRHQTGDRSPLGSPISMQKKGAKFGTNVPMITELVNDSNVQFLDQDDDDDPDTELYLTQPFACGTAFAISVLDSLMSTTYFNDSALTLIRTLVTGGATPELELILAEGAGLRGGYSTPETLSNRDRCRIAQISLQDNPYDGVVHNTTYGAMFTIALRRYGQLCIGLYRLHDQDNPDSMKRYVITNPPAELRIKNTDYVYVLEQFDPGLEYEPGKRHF

SMILES | chromatographic logP [2] | EC50 (C. elegans Slo-1a) [nM] | pE50 (C. elegans Slo-1a) | other results
Cc1nn2c(C(C)C)c(C(=O)N[C@H]3CCCc4ccccc43)cnc2c1-c1cccc(C(F)(F)F)c1 [Example 3] | 5.59 | 50.1 | – | EC50 [1]: < 10 µg/mL
Cc1c(C(=O)N[C@H]2CCc3ccccc32)cnc2c(-c3ccccc3Cl)c(Cl)nn12 [Example 74] | 3.99 | 39.8 | – | EC50 [1]: < 1 µg/mL
Cc1c(C(=O)N[C@H]2CCCc3ccccc32)cnc2c(-c3ccccc3Cl)c(Cl)nn12 [Example 77] | 4.26 | 63.1 | – | EC50 [1]: < 10 µg/mL
Cc1nn2c(C(C)C)c(C(=O)N[C@H]3CCOc4ccc(Cl)cc43)cnc2c1-c1ccccc1Cl [Example 104] | – | – | 7 | logP (Method L0) [a] [2]: 4.87
Cc1nn2c(C(C)C)c(C(=O)N[C@H]3CCOc4ccc(Cl)cc43)cnc2c1-c1cccc(Cl)c1 [Example 105] | – | – | 6.8 | logP (Method L0) [a] [2]: 5.36
Cc1ccc2c(c1)[C@@H](NC(=O)c1cnc3c(-c4c(F)cccc4F)c(C)nn3c1C(C)C)CCC2 [Example 108] | – | – | 7.3 | logP (Method L0) [a] [2]: 5.09
Cc1ccc2c(c1)[C@@H](NC(=O)c1cnc3c(-c4ccccc4F)c(C)nn3c1C(C)C)CCC2 [Example 110] | – | – | 6.7 | logP (Method L0) [a] [2]: 5.16
Cc1ccc2c(c1)[C@@H](NC(=O)c1cnc3c(-c4ccccc4Cl)c(C)nn3c1C(C)C)CCC2 [Example 111] | – | – | 7.2 | logP (Method L0) [a] [2]: 5.37
Cc1nn2c(C(C)C)c(C(=O)N[C@H]3CCOc4ccc(Cl)cc43)cnc2c1-c1cc(F)ccc1F [Example 114] | – | – | 6.9 | logP (Method L0) [a] [2]: 4.82
Cc1nn2c(C(C)C)c(C(=O)N[C@H]3CCCc4ccccc43)cnc2c1-c1ccc(Cl)c(C(=O)NC2CC2)c1 [Example 119] | – | – | 5.5 | logP (Method L0) [a] [2]: 4.07
Cc1nn2c(C(C)C)c(C(=O)N[C@H]3CCc4ccccc43)cnc2c1-c1ccc2c(c1)OC(F)(F)O2 [Example 123] | 5.25 | 10 | – | –
Cc1nn2c(C(C)C)c(C(=O)N[C@H]3CCCc4ccccc43)cnc2c1-c1cc(Cl)cc(C(F)(F)F)c1 [Example 124] | 6.36 | 7.94 | – | –
Cc1nn2c(C(C)C)c(C(=O)N[C@H]3CCCc4ccccc43)cnc2c1-c1ccc(C(C)C)cc1 [Example 126] | 6.01 | 200 | – | –
CC(C)c1c(C(=O)N[C@H]2CCc3ccccc32)cnc2c(-c3cc(Cl)cc(Cl)c3)c(C(F)(F)F)nn12 [Example 167] | 6.06 | 39.8 | – | –
Cc1nn2c(C(C)C)c(C(=O)N[C@H]3CCOc4ccccc43)cnc2c1-c1ccc(C(F)(F)F)c(F)c1 [Example 187] | – | – | 7.9 | logP (Method L0) [a] [2]: 4.85
Cc1nn2c(C(C)C)c(C(=O)N[C@H]3CCOc4ccccc43)cnc2c1-c1cccc(OC(F)(F)F)c1F [Example 215] | – | – | 9.1 | log P [2]: 5.02
COc1c(Cl)ccc(-c2c(C)nn3c(C(C)C)c(C(=O)N[C@H]4CCOc5ccccc54)cnc23)c1F [Example 216] | – | – | 9.1 | log P [2]: 4.74
Cc1nn2c(C(C)C)c(C(=O)N[C@H]3CCOc4ccccc43)cnc2c1-c1ccc(Cl)c(Cl)c1 [Example 230] | – | – | 8.1 | log P [2]: 5.48
COc1ccc(F)c(-c2c(C)nn3c(C(C)C)c(C(=O)N[C@H]4CCOc5ccccc54)cnc23)c1Cl [Example 233] | – | – | 8.1 | log P [2]: 4.23
COc1c(F)cc(F)c(-c2c(C)nn3c(C(C)C)c(C(=O)N[C@H]4CCOc5ccccc54)cnc23)c1F [Example 235] | – | – | 9.2 | log P [2]: 4.38
CC(C)c1c(C(=O)N[C@H]2CCOc3ccccc32)cnc2c(-c3cccc(F)c3F)c(Cl)nn12 [Example 281, 2-Chloro-N—((S)-chroman-4-yl)-3-(2,3-difluorophenyl)-7-isopropylpyrazolo[1,5-a]pyrimidine-6-carboxamide] | – | 5.01 | – | EC50 [1]: < 0.1 µg/mL
Cc1nn2c(C(C)C)c(C(=O)N[C@H]3CCc4ccccc43)cnc2c1-c1cccc(C#N)c1 [Example 291] | 4.31 | 50.1 | – | –
Cc1nn2c(C(C)C)c(C(=O)N[C@H]3CCc4ccccc43)cnc2c1-c1cc(F)cc(C(F)(F)F)c1 [Example 292] | 5.6 | 39.8 | – | –
Cc1nn2c(C(C)C)c(C(=O)N[C@H]3CCc4ccccc43)cnc2c1-c1ccc(C#N)c(C(F)(F)F)c1 [Example 293] | 4.97 | 316 | – | –
Cc1nn2c(C(C)C)c(C(=O)N[C@H]3CCc4ccccc43)cnc2c1-c1ccc(Cl)nc1 [Example 295] | 4.21 | 63.1 | – | –
Cc1nn2c(C(C)C)c(C(=O)N[C@H]3CCc4ccccc43)cnc2c1-c1cncnc1 [Example 296] | 2.99 | 7940 | – | –
Cc1nn2c(C(C)C)c(C(=O)N[C@H]3CCc4ccccc43)cnc2c1-c1cnn(C)c1 [Example 303] | 3.13 | 794 | – | –

SMILES | chromatographic logP [2] | EC50 (C. elegans Slo-1a) [nM] | pE50 (C. elegans Slo-1a) | other results
COCc1c(C(=O)N[C@H]2CCc3ccccc32)cnc2c(-c3cccc(C(F)(F)F)c3)c(C)nn12 [Example 305] | 4.52 | 63.1 | – | –
CCc1c(C(=O)N[C@H]2CCc3ccccc32)cnc2c(-c3cccc(C(F)(F)F)c3)c(C)nn12 [Example 306] | 4.86 | 50.1 | – | –
Cc1nn2c(C(C)C)c(C(=O)N[C@H]3CCc4ccccc43)cnc2c1-c1cnn(CC(F)(F)F)c1 [Example 310] | – | – | 8 | log P [2]: 3.81
Cc1nn2c(C(F)F)c(C(=O)N[C@H]3CCc4ccccc43)cnc2c1-c1cccc(C(F)(F)F)c1 [Example 311, (S)-7-(Difluoromethyl)-N-(2,3-dihydro-1H-inden-1-yl)-2-methyl-3-(3-(trifluoromethyl)-phenyl)-pyrazolo[1,5-a]pyrimidine-6-carboxamide] | 4.36 | 200 | – | –
Cc1nn2c(C(C)C)c(C(=O)N[C@H]3CCc4ccccc43)cnc2c1-c1cccc(N2CCOCC2)c1 [Example 316] | 4.26 | 158 | – | –
Cc1nn2c(C(C)C)c(C(=O)N[C@H]3CCc4ccccc43)cnc2c1-c1ccncc1 [Example 318] | 1.84 | 1000 | – | –
CCOc1cccc(-c2c(C)nn3c(C(C)C)c(C(=O)N[C@H]4CCc5ccccc54)cnc23)c1 [Example 322] | 4.94 | 12.6 | – | –
Cc1nn2c(C(C)C)c(C(=O)N[C@H]3CCc4ccccc43)cnc2c1-c1ccc(N2CCOCC2)cc1 [Example 326] | 4.2 | 1260 | – | –
Cc1nn2c(C(C)C)c(C(=O)N[C@H]3CCc4ccccc43)cnc2c1-c1cccc(-n2cccn2)c1 [Example 328] | 4.4 | 39.8 | – | –
COc1ccc(-c2c(C)nn3c(C(C)C)c(C(=O)N[C@H]4CCc5ccccc54)cnc23)cc1 [Example 333] | 4.43 | 100 | – | –
Cc1nn2c(C(C)C)c(C(=O)N[C@H]3CCc4ccccc43)cnc2c1-c1ccc(OC(F)F)cc1 [Example 335] | 4.66 | 126 | – | –
CCOc1ccc(-c2c(C)nn3c(C(C)C)c(C(=O)N[C@H]4CCc5ccccc54)cnc23)cc1 [Example 339] | 4.87 | 2510 | – | –
Cc1nn2c(C(C)C)c(C(=O)N[C@H]3CCCc4ccccc43)cnc2c1-c1cnn(CC(F)(F)F)c1 [Example 359] | – | – | 7.9 | log P [2]: 4.11
Cc1nn2c(C(C)C)c(C(=O)N[C@H]3CCc4ccccc43)cnc2c1-c1cccc(C[S+](C)[O-])c1 (stereo partly shown) [Example 380] | – | – | 6 | log P [2]: 3.05
Cc1nn2c(C(C)C)c(C(=O)N[C@H]3CCOc4ccccc43)cnc2c1-c1cnn(CC(F)(F)F)c1 [Example 401] | – | – | 7.9 | log P [2, 3]: 3.57
Cc1nn2c(C3CC3)c(C(=O)N[C@H]3CCc4ccccc43)cnc2c1-c1cnn(CC(F)(F)F)c1 [Example 421] | – | – | 8.1 | log P [2, 3]: 3.17
Cc1nn2c(C3CC3)c(C(=O)N[C@H]3CCOc4ccccc43)cnc2c1-c1cnn(CC(F)(F)F)c1 [Example 468] | – | – | 7.8 | log P [2, 3]: 2.95
Cc1nn2c(CN(C)C)c(C(=O)N[C@H]3CCc4ccccc43)cnc2c1-c1cccc(Cl)c1Cl [Example 522] | – | – | 7.8 | log P [2, 3]: 2.08
Cc1nn2c(CN(C)C)c(C(=O)N[C@H]3CCOc4ccccc43)cnc2c1-c1cccc(Cl)c1Cl [Example 523] | – | – | 8.0 | log P [2, 3]: 2.17
CSCCN(C)c1c(C(=O)N[C@H]2CCOc3ccccc32)cnc2c(-c3cccc(Cl)c3Cl)c(C)nn12 [Example 529] | – | – | 8.1 | log P [2, 3]: 4.69
Cc1nn2c(N3CCOCC3)c(C(=O)N[C@H]3CCOc4ccccc43)cnc2c1-c1cccc(C(F)(F)F)c1F [Example 530] | – | – | 9.0 | log P [2, 3]: 3.99
Cc1nn2c(NC3CC3)c(C(=O)N[C@H]3CCOc4ccccc43)cnc2c1-c1cc(F)cc(F)c1 [Example 539] | – | – | 6.8 | log P [2, 3]: 4.46
Cc1nn2c(N(C)CCS(C)(=O)=O)c(C(=O)N[C@H]3CCOc4ccccc43)cnc2c1-c1cc(Cl)cc(Cl)c1 [Example 541] | – | – | 8.0 | log P [2, 3]: 3.29
Cc1nn2c(NC3CC3)c(C(=O)N[C@H]3CCOc4ccccc43)cnc2c1-c1cc(Cl)cc(Cl)c1 [Example 542] | – | – | 6.5 | log P [2, 3]: 5.59
Cc1nn2c(NC3CC3)c(C(=O)N[C@H]3CCOc4ccccc43)cnc2c1-c1cccc(Cl)c1Cl [Example 546] | – | – | 8.2 | log P [2, 3]: 4.32
Cc1nn2c(C3CC3)c(C(=O)N[C@H]3CCOc4ccccc43)cnc2c1-c1cc(F)cc(F)c1F [Example 557] | 3.72 | 2 | – | –
